Laboratory results taken from patent publication US11000033B2, “Ketone or oxime compound, and herbicide” (NISSAN CHEMICAL CORPORATION, priority 2014, dated 2021).

How the values were obtained:
Format in all cases: in vivo
Scirpus juncoides = assay: Test Example 1: herbicidal activity, application before weed generation in submerged conditions (symbol B); settings: application herbicide amount 320 g/ha
Outline: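 Steps: alluvial soil flooded to 4 cm; weed seeds sown together; rice seedlings (2.5 leaf) transplanted; diluted emulsion applied to water surface the same day as sowing; plants grown at 25–30 °C in greenhouse; herbicidal effect rated on a 0–5 scale at 3 weeks.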

Leptochloa chinensis = assay: Test Example 3: herbicidal effect by foliage application, Wagner pot (symbol D); settings: application herbicide amount 320 g/ha
Outline: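 Foliar spray of water-diluted emulsion formulation at a predetermined herbicide amount onto 14-day-old plants in flooded alluvial soil (water depth 0.1–0.5 cm), greenhouse 25–30 °C; rice sown alongside. Scored 3 wk post-application on set criteria.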

[1] = test system: directly sowed rice plant; assay: Test Example 3: effect on crop by foliage application, Wagner pot (symbol b); settings: application herbicide amount 320 g/ha
Outline: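 Alluvial soil in a 1/10000-are Wagner pot was flooded to a water depth of 0.1–0.5 cm. Echinochloa crus-galli var. crus-galli, Leptochloa chinensis, Cyperus difformis and rice were sown into it and grown in a greenhouse at 25–30 °C.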

Alopecurus myosuroides [2] = assay: Test Example 4: herbicidal effect by soil treatment (symbol J)
Outline: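 Seeds were sown in sterilized diluvial soil, covered with about 1.5 cm of soil, and the soil surface was sprayed with a water-diluted emulsion of the compound at a predetermined rate. Plants grew in a greenhouse at 25° C. to 30° C.; effects were scored visually 3 weeks after application.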

soybean = assay: Test Example 4: effect on crop by soil treatment (symbol d); settings: for d: soybean, effect on crop grade: application herbicide amount 320 g/ha
Outline: (§1)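 Plants are raised in a greenhouse (25° C. to 30° C.) from spot-sown seed, which sits under about 1.5 cm of sterilized diluvial soil in a box shared with weed species.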

rice = assay: Test Example 4: effect on crop by soil treatment (symbol b); settings: for b: directly sowed rice plant, effect on crop grade: application herbicide amount 320 g/ha
Outline: as §1

beet = assay: Test Example 4: effect on crop by soil treatment (symbol f); settings: for f: beet, effect on crop grade: application herbicide amount 320 g/ha
Outline: as §1

Digitaria ciliaris = assay: Test Example 5: herbicidal effect by foliage application, plastic box (symbol F); settings: 320 g/ha, 3 weeks after application
Outline: (§2)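 Greenhouse foliar test: seedlings at 14 days, grown 25° C. to 30° C. in sterilized diluvial soil; compound applied as an aqueous dilution of an emulsion; response read 3 weeks after spraying.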

[3] = test system: Echinochloa crus-galli var. crus-galli; assay: Test Example 5: herbicidal effect by foliage application, plastic box (symbol H); settings: 320 g/ha, 3 weeks after application
Outline: as §2

Alopecurus myosuroides [4] = assay: Test Example 5: herbicidal effect by foliage application, plastic box (symbol J); settings: 320 g/ha, 3 weeks after application
Outline: as §2

Apera spica-venti = assay: Test Example 5: herbicidal effect by foliage application, plastic box (symbol L); settings: 320 g/ha, 3 weeks after application
Outline: as §2

Chenopodium album = assay: Test Example 5: herbicidal effect by foliage application, plastic box (symbol O); settings: 320 g/ha, 3 weeks after application
Outline: as §2

Galium spurium = assay: Test Example 5: herbicidal effect by foliage application, plastic box (symbol Q); settings: 320 g/ha, 3 weeks after application
Outline: as §2

Veronica persica = assay: Test Example 5: herbicidal effect by foliage application, plastic box (symbol R); settings: 320 g/ha, 3 weeks after application
Outline: as §2

rapeseed = assay: Test Example 5: effect on crop by foliage application, plastic box (symbol g); settings: 320 g/ha, 3 weeks after application
Outline: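 Sterilized diluvial soil, plastic box (21 × 13 × 7 cm); spot sowing, ~1.5 cm soil cover; greenhouse 25–30° C.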

[5] = application herbicide amount 320 g/ha

Row | SMILES | Herbicidal effect grade, B: Scirpus juncoides (Scirpus juncoides) | herbicidal effect on D (Leptochloa chinensis), grade 0-5 (Leptochloa chinensis) | effect on crop b (directly sowed rice plant), grade 0-5 [1] | J: Alopecurus myosuroides, herbicidal effect grade (Alopecurus myosuroides [2]; [5]) | d: soybean, effect on crop grade (soybean) | b: directly sowed rice plant, effect on crop grade (rice) | f: beet, effect on crop grade (beet) | F: Digitaria ciliaris, herbicidal effect grade (Digitaria ciliaris) | H: Echinochloa crus-galli var. crus-galli, herbicidal effect grade [3] | J: Alopecurus myosuroides, herbicidal effect grade (Alopecurus myosuroides [4]) | L: Apera spica-venti, herbicidal effect grade (Apera spica-venti) | O: Chenopodium album, herbicidal effect grade (Chenopodium album) | Q: Galium spurium, herbicidal effect grade (Galium spurium) | R: Veronica persica, herbicidal effect grade (Veronica persica) | g: rapeseed, effect on crop grade (rapeseed) | J: Alopecurus myosuroides, herbicidal effect grade (Alopecurus myosuroides [2]; 320 g/ha) | d: soybean, effect grade on crop (soybean; 320 g/ha) | b: directly sowed rice plant, effect grade on crop (rice; 320 g/ha) | f: beet, effect grade on crop (beet; 320 g/ha)
1 | CON=C(C)C1CC(O)=C(c2c(C)cc(C)cc2C)C1=O (mixture of isomers) [3-002] | 0 (Herbicidal ratio of 5% or lower (almost no effect)) | 0 (Herbicidal ratio of 5% or lower (almost no effect)) | 0 (Herbicidal ratio of 5% or lower (almost no effect)) | 0 (Herbicidal ratio of 5% or lower (almost no effect)) | 0 (Herbicidal ratio of 5% or lower (almost no effect)) | 0 (Herbicidal ratio of 5% or lower (almost no effect)) | 0 (Herbicidal ratio of 5% or lower (almost no effect)) | 0 (Herbicidal ratio of 5% or lower (almost no effect)) | 1 (Herbicidal ratio of 5% or higher and lower than 20%) | 0 (Herbicidal ratio of 5% or lower (almost no effect)) | 0 (Herbicidal ratio of 5% or lower (almost no effect)) | 0 (Herbicidal ratio of 5% or lower (almost no effect)) | 0 (Herbicidal ratio of 5% or lower (almost no effect)) | 0 (Herbicidal ratio of 5% or lower (almost no effect)) | 0 (Herbicidal ratio of 5% or lower (almost no effect)) |  |  |  | 
2 | CON=C(C)CC1CC(O)=C(c2c(C)cc(C#CCO)cc2C)C1=O (mixture of isomers) [6-025] | 0 (Herbicidal ratio of 5% or lower (almost no effect)) | 5 (Herbicidal ratio of 90% or more (almost completely withered)) | 5 (Herbicidal ratio of 90% or more (almost completely withered)) | 2 (Herbicidal ratio of 20% or higher and lower than 40%) | 0 (Herbicidal ratio of 5% or lower (almost no effect)) | 5 (Herbicidal ratio of 90% or more (almost completely withered)) | 0 (Herbicidal ratio of 5% or lower (almost no effect)) | 4 (Herbicidal ratio of 70% or higher and lower than 90%) | 5 (Herbicidal ratio of 90% or more (almost completely withered)) | 5 (Herbicidal ratio of 90% or more (almost completely withered)) | 5 (Herbicidal ratio of 90% or more (almost completely withered)) | 0 (Herbicidal ratio of 5% or lower (almost no effect)) | 0 (Herbicidal ratio of 5% or lower (almost no effect)) | 0 (Herbicidal ratio of 5% or lower (almost no effect)) | 3 (Herbicidal ratio of 40% or higher and lower than 70%) |  |  |  | 
3 | CON=C(C)CC1CC(OC(=O)C(C)Oc2ccc(Oc3ccc(Cl)cc3Cl)cc2)=C(c2c(C)cc(C)cc2C)C1=O (stereo not drawn) [1-163] | 4 (Herbicidal ratio of 70% or higher and lower than 90%) | 5 (Herbicidal ratio of 90% or more (almost completely withered)) |  |  |  |  |  | 5 (Herbicidal ratio of 90% or more (almost completely withered)) | 5 (Herbicidal ratio of 90% or more (almost completely withered)) | 5 (Herbicidal ratio of 90% or more (almost completely withered)) | 5 (Herbicidal ratio of 90% or more (almost completely withered)) | 3 (Herbicidal ratio of 40% or higher and lower than 70%) | 3 (Herbicidal ratio of 40% or higher and lower than 70%) | 3 (Herbicidal ratio of 40% or higher and lower than 70%) | 5 (Herbicidal ratio of 90% or more (almost completely withered)) | 5 (Herbicidal ratio of 90% or more (almost completely withered)) | 0 (Herbicidal ratio of 5% or lower (almost no effect)) | 5 (Herbicidal ratio of 90% or more (almost completely withered)) | 0 (Herbicidal ratio of 5% or lower (almost no effect))
4 | CC(=O)CC1CC(OC(=O)C(C)(C)C)=C(c2c(C)cc(C)cc2C)C1=O (stereo not drawn) [2-018] | 2 (Herbicidal ratio of 20% or higher and lower than 40%) | 5 (Herbicidal ratio of 90% or more (almost completely withered)) | 5 (Herbicidal ratio of 90% or more (almost completely withered)) | 3 (Herbicidal ratio of 40% or higher and lower than 70%) | 0 (Herbicidal ratio of 5% or lower (almost no effect)) | 5 (Herbicidal ratio of 90% or more (almost completely withered)) | 0 (Herbicidal ratio of 5% or lower (almost no effect)) | 1 (Herbicidal ratio of 5% or higher and lower than 20%) | 1 (Herbicidal ratio of 5% or higher and lower than 20%) | 1 (Herbicidal ratio of 5% or higher and lower than 20%) | 1 (Herbicidal ratio of 5% or higher and lower than 20%) |  | 0 (Herbicidal ratio of 5% or lower (almost no effect)) | 0 (Herbicidal ratio of 5% or lower (almost no effect)) | 0 (Herbicidal ratio of 5% or lower (almost no effect)) |  |  |  | 
5 | CCC(=O)CC1CC(O)=C(c2c(C)cc(C)cc2C)C1=O (stereo not drawn) [2-006] | 2 (Herbicidal ratio of 20% or higher and lower than 40%) |  | 5 (Herbicidal ratio of 90% or more (almost completely withered)) | 5 (Herbicidal ratio of 90% or more (almost completely withered)) | 0 (Herbicidal ratio of 5% or lower (almost no effect)) | 5 (Herbicidal ratio of 90% or more (almost completely withered)) | 0 (Herbicidal ratio of 5% or lower (almost no effect)) | 3 (Herbicidal ratio of 40% or higher and lower than 70%) | 4 (Herbicidal ratio of 70% or higher and lower than 90%) | 4 (Herbicidal ratio of 70% or higher and lower than 90%) | 3 (Herbicidal ratio of 40% or higher and lower than 70%) | 0 (Herbicidal ratio of 5% or lower (almost no effect)) | 0 (Herbicidal ratio of 5% or lower (almost no effect)) | 0 (Herbicidal ratio of 5% or lower (almost no effect)) | 0 (Herbicidal ratio of 5% or lower (almost no effect)) |  |  |  | 
